The source of these data is ChEMBL document CHEMBL1159332, “Equilibrating isomers: bromoindoles and a seco-xanthine encountered during a study of nematocides from the southern Australian marine sponge Hymeniacidon sp” (2002).

Calls of active or inactive are those of the source. No cut-off for these calls is given here.

The experiment concerns Haemonchus contortus. In words: Nematocidal activity against Haemonchus contortus. In kind it is functional.

The compound `CCOC(=O)/C=C/c1c[nH]c2cc(Br)ccc12` registered an LD99 of 42 µg/mL.
Regarding `CCOC(=O)/C=C\c1c[nH]c2cc(Br)ccc12`, the LD99 is 42 µg/mL.
Regarding `CNc1c(N(C)C=O)c(=O)n(C)c(=O)n1C`, the outcome was inactive.
`COC(=O)/C=C/c1c[nH]c2cc(Br)ccc12`: the LD99 was found to be 50 µg/mL.
Still for that read-out and setting: in the case of `COC(=O)/C=C\c1c[nH]c2cc(Br)ccc12` it was 50 µg/mL.
